Assay results: article PMC12090182, “Repurposing of the RIPK1-Selective Benzo[1,4]oxazepin-4-one Scaffold for the Development of a Type III LIMK1/2 Inhibitor” (ACS Chemical Biology, 2025)

Key:
Test in all cases: scanMAX KINOMEscan (Eurofins)
Format in all cases: binding
[1] = target: BRK (Homo sapiens, UniProt Q13882); settings: 1000 nM, read-out: Percent Control
Text: (§1) Supplement cb5c00097_si_002.xlsx, sheet "Table S6 (Eurofins Selectivity)" | column: Percent Control

[2] = target: CDK11 (Homo sapiens, UniProt Q9BWU1); settings: read-out: Percent Control
Text: as §1

[3] = target: CSF1R-autoinhibited (Homo sapiens, UniProt P07333); settings: 1000 nM, read-out: Percent Control
Text: as §1

[4] = target: DYRK2 (Homo sapiens, UniProt Q92630); settings: read-out: Percent Control
Text: as §1

[5] = target: EGFR (Homo sapiens, UniProt P00533); settings: read-out: Percent Control
Text: as §1

[6] = target: EPHA1 (Homo sapiens, UniProt P21709); settings: 1000 nM, read-out: Percent Control
Text: as §1

[7] = target: EPHA5 (Homo sapiens, UniProt P54756); settings: 1000 nM, read-out: Percent Control
Text: as §1

[8] = target: EPHA8 (Homo sapiens, UniProt P29322); settings: 1000 nM, read-out: Percent Control
Text: as §1

[9] = target: ERK2 (Homo sapiens, UniProt P28482); settings: 1000 nM, read-out: Percent Control
Text: as §1

[10] = target: ERK4 (Homo sapiens, UniProt P31152); settings: 1000 nM, read-out: Percent Control
Text: as §1

[11] = target: FLT1 (Homo sapiens, UniProt P17948); settings: 1000 nM, read-out: Percent Control
Text: as §1

[12] = target: GRK1 (Homo sapiens, UniProt Q15835); settings: read-out: Percent Control
Text: as §1

[13] = target: IKK-beta (Homo sapiens, UniProt O14920); settings: read-out: Percent Control
Text: as §1

[14] = target: INSR (Homo sapiens, UniProt P06213); settings: 1000 nM, read-out: Percent Control
Text: as §1

[15] = target: JNK1 (Homo sapiens, UniProt P45983); settings: compound concentration 100 nM; Entrez MAPK8; read-out: Percent Control
Text: as §1

[16] = target: MEK4 (Homo sapiens, UniProt P45985); settings: compound concentration 100 nM; Entrez MAP2K4; read-out: Percent Control
Text: as §1

[17] = target: MERTK (Homo sapiens, UniProt Q12866); settings: 1000 nM, read-out: Percent Control
Text: as §1

[18] = target: MST1 (Homo sapiens, UniProt Q13043); settings: 1000 nM, read-out: Percent Control
Text: as §1

[19] = target: NDR2 (Homo sapiens, UniProt Q9Y2H1); settings: 1000 nM, read-out: Percent Control
Text: as §1

[20] = target: NEK10 (Homo sapiens, UniProt Q6ZWH5); settings: 1000 nM, read-out: Percent Control
Text: as §1

[21] = target: NEK6 (Homo sapiens, UniProt Q9HC98); settings: compound concentration 100 nM; Entrez NEK6; read-out: Percent Control
Text: as §1

[22] = target: PKN2 (Homo sapiens, UniProt Q16513); settings: compound concentration 100 nM; Entrez PKN2; read-out: Percent Control
Text: as §1

[23] = target: PLK3 (Homo sapiens, UniProt Q9H4B4); settings: compound concentration 100 nM; Entrez PLK3; read-out: Percent Control
Text: as §1

[24] = target: PRKR (Homo sapiens, UniProt P19525); settings: compound concentration 100 nM; Entrez EIF2AK2; read-out: Percent Control
Text: as §1

[25] = target: RIPK5 (Homo sapiens, UniProt Q6XUX3); settings: compound concentration 100 nM; Entrez DSTYK; read-out: Percent Control
Text: as §1

[26] = target: SRPK1 (Homo sapiens, UniProt Q96SB4); settings: 1000 nM, read-out: Percent Control
Text: as §1

[27] = target: STK35 (Homo sapiens, UniProt Q8TDR2); settings: compound concentration 100 nM; Entrez STK35; read-out: Percent Control
Text: as §1

[28] = target: TAOK3 (Homo sapiens, UniProt Q9H2K8); settings: 1000 nM, read-out: Percent Control
Text: as §1

[29] = target: TESK1 (Homo sapiens, UniProt Q15569); settings: 1000 nM, read-out: Percent Control
Text: as §1

[30] = target: TGFBR2 (Homo sapiens, UniProt P37173); settings: compound concentration 100 nM; Entrez TGFBR2; read-out: Percent Control
Text: as §1

[31] = target: TNIK (Homo sapiens, UniProt Q9UKE5); settings: 1000 nM, read-out: Percent Control
Text: as §1

[32] = target: TRKC (Homo sapiens, UniProt Q16288); settings: 1000 nM, read-out: Percent Control
Text: as §1

[33] = target: TSSK3 (Homo sapiens, UniProt Q96PN8); settings: compound concentration 100 nM; Entrez TSSK3; read-out: Percent Control
Text: as §1

[34] = target: WNK1 (Homo sapiens, UniProt Q9H4A3); settings: compound concentration 100 nM; Entrez WNK1; read-out: Percent Control
Text: as §1

[35] = target: ZAK (Homo sapiens, UniProt Q9NYL2); settings: compound concentration 100 nM; Entrez ZAK; read-out: Percent Control
Text: as §1

Chain of IKK-beta (O14920 whole entry): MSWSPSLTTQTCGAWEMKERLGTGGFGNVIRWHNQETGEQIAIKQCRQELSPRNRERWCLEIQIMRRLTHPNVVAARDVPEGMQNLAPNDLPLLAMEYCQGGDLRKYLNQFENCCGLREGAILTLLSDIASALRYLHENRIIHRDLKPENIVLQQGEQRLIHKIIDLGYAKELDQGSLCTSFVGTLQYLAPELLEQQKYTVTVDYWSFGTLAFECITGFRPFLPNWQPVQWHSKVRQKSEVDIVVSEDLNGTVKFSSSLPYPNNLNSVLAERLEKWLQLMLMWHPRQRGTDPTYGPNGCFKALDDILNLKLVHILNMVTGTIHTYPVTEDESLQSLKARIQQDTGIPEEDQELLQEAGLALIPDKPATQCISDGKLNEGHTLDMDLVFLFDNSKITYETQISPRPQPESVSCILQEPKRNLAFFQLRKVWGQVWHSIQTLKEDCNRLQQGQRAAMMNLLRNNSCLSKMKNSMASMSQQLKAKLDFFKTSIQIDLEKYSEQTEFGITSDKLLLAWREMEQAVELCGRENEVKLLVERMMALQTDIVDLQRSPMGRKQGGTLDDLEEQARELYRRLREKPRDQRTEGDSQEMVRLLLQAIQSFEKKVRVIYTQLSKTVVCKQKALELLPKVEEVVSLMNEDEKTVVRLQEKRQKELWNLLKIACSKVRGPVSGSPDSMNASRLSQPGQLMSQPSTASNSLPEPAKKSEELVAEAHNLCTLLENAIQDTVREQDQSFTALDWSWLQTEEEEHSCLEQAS
Chain of DYRK2 (Q92630 whole entry): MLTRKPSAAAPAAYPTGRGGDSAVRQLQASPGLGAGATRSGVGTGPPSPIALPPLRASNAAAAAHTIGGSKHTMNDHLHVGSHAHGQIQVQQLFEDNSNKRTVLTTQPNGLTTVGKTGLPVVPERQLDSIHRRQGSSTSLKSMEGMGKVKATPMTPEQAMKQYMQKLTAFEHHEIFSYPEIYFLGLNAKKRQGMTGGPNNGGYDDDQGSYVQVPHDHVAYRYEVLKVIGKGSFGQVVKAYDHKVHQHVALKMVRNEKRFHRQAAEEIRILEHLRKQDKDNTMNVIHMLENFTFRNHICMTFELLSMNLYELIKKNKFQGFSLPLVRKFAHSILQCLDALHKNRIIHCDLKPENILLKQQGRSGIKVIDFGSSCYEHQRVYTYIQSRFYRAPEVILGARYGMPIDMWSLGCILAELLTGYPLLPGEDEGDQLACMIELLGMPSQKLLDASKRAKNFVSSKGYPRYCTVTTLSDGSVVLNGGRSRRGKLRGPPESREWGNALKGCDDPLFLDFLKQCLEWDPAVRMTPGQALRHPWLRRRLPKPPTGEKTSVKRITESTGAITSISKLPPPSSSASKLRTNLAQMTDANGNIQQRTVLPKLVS
Chain of CDK11 (Q9BWU1 whole entry): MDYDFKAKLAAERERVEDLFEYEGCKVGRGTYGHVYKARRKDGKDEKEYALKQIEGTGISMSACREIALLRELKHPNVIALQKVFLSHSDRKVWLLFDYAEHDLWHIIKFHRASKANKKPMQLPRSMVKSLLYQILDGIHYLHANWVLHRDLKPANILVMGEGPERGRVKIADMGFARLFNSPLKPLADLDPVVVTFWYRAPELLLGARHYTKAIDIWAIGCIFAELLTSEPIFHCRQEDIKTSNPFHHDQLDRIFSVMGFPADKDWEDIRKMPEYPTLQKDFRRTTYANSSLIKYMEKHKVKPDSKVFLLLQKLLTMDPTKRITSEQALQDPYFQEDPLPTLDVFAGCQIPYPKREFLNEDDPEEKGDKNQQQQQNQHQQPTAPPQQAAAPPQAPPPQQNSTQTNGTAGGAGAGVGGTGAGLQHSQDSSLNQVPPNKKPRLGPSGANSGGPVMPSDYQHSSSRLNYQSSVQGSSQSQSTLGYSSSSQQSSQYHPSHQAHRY
Chain of GRK1 (Q15835 whole entry): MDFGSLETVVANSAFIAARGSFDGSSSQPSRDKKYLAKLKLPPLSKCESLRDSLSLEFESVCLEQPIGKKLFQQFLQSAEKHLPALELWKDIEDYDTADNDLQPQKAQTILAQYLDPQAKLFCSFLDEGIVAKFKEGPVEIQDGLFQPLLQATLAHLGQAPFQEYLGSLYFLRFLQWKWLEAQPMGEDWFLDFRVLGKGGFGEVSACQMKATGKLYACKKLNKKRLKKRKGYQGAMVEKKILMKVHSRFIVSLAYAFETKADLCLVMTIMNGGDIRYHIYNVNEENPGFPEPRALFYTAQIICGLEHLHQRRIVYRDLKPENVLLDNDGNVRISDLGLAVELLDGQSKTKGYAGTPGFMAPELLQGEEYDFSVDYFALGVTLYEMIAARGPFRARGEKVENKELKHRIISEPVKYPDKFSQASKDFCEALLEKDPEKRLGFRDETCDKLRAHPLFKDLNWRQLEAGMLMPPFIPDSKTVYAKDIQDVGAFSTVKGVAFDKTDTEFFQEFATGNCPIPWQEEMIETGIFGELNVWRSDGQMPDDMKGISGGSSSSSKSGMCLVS
Chain of EGFR (P00533 25-1210): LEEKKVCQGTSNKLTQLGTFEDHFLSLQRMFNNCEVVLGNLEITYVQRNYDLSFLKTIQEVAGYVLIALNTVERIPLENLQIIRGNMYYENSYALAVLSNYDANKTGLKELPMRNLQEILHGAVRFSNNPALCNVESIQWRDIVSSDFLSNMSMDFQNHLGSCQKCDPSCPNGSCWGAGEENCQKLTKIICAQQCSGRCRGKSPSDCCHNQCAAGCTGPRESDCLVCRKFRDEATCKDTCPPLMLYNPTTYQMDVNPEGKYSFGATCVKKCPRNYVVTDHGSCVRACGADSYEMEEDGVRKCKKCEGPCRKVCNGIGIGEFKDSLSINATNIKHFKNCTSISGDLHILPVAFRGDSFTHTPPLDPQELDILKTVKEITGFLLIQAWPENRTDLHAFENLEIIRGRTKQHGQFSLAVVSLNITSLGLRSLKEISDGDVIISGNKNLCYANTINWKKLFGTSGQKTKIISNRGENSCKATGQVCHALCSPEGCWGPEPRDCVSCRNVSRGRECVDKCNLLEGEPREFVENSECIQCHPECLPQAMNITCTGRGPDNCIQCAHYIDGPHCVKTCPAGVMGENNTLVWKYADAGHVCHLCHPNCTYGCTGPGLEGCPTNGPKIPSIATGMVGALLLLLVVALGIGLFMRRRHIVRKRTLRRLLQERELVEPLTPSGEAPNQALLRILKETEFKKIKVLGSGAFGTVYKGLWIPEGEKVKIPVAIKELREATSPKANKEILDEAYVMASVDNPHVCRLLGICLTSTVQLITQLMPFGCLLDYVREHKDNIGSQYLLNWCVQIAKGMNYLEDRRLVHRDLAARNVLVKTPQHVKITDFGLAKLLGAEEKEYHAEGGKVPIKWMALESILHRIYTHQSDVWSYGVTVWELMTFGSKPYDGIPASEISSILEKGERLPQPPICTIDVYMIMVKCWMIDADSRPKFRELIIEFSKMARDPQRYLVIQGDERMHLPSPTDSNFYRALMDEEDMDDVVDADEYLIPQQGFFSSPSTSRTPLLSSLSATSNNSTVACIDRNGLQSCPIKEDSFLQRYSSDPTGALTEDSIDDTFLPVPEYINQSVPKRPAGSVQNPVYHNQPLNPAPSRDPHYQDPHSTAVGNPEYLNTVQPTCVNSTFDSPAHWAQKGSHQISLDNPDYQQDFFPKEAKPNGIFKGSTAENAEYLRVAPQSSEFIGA
Chain of ZAK (Q9NYL2 whole entry): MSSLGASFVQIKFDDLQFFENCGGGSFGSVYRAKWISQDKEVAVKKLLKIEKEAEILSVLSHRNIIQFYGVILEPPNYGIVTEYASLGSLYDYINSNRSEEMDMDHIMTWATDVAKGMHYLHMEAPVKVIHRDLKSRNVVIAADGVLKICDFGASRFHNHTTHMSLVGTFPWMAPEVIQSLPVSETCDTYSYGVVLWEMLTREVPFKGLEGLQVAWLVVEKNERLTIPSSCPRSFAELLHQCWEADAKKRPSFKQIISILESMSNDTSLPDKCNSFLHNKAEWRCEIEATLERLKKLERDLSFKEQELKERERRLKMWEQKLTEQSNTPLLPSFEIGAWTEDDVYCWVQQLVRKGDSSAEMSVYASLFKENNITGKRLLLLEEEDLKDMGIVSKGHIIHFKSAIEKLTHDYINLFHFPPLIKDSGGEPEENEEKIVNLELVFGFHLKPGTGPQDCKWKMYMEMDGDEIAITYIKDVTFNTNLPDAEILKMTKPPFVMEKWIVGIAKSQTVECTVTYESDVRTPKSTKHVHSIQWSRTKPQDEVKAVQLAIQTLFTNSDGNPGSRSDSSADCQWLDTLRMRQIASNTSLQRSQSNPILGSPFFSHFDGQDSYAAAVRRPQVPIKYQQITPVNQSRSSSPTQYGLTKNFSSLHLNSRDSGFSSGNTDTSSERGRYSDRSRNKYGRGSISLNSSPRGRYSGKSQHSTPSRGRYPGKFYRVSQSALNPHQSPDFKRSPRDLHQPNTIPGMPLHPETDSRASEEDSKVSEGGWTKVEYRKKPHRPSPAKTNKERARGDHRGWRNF
Chain of PRKR (P19525 whole entry): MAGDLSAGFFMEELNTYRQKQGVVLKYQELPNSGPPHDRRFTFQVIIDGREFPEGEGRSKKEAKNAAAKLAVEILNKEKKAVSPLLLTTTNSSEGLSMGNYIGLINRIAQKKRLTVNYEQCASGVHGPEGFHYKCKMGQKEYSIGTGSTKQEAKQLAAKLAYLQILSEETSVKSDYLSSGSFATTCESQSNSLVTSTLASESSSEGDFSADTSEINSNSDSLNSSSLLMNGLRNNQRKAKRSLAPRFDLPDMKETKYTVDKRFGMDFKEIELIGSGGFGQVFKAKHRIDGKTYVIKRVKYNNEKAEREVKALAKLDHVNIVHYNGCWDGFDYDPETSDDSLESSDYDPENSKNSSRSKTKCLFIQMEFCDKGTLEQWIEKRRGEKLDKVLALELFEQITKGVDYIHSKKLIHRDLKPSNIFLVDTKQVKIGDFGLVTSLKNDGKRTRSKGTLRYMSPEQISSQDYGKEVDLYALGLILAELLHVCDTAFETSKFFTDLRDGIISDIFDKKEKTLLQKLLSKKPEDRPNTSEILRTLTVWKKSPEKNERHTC

## CN1C(=O)[C@@H](N2CCc3c(nn(Cc4ccccc4)c3C(N)=O)C2=O)COc2cc(Cl)ccc21 [Compound 10, (S)-2-benzyl-6-(8-chloro-5-methyl-4-oxo-2,3,4,5-tetrahydrobenzo[b][1,4]oxazepin-3-yl)-7-oxo-4,5,6,7-tetrahydro-2H-pyrazolo[3,4-c]pyridine-3-carboxamide]
[1]
  remaining binding at 1 µM: 87%
[2]; 1000 nM
  remaining binding at 1 µM: 100%
[2]; compound concentration 100 nM, Entrez CDK19
  remaining binding at 0.1 µM: 100%
[3]
  remaining binding at 1 µM: 74%
[4]; 1000 nM
  remaining binding at 1 µM: 100%
[4]; compound concentration 100 nM, Entrez DYRK2
  remaining binding at 0.1 µM: 100%
[5]; 1000 nM
  remaining binding at 1 µM: 100%
[5]; compound concentration 100 nM, Entrez EGFR
  remaining binding at 0.1 µM: 96%
[6]
  remaining binding at 1 µM: 87%
[7]
  remaining binding at 1 µM: 97%
[8]
  remaining binding at 1 µM: 97%
[9]
  remaining binding at 1 µM: 95%
[10]
  remaining binding at 1 µM: 92%
[11]
  remaining binding at 1 µM: 86%
[12]; 1000 nM
  remaining binding at 1 µM: 100%
[12]; compound concentration 100 nM, Entrez GRK1
  remaining binding at 0.1 µM: 100%
[13]; 1000 nM
  remaining binding at 1 µM: 100%
[13]; compound concentration 100 nM, Entrez IKBKB
  remaining binding at 0.1 µM: 97%
[14]
  remaining binding at 1 µM: 98%
[15]
  remaining binding at 0.1 µM: 79%
[16]
  remaining binding at 0.1 µM: 100%
[17]
  remaining binding at 1 µM: 98%
[18]
  remaining binding at 1 µM: 92%
[19]
  remaining binding at 1 µM: 96%
[20]
  remaining binding at 1 µM: 94%
[21]
  remaining binding at 0.1 µM: 78%
[22]
  remaining binding at 0.1 µM: 90%
[23]
  remaining binding at 0.1 µM: 86%
[24]
  remaining binding at 0.1 µM: 71%
[25]
  remaining binding at 0.1 µM: 91%
[26]
  remaining binding at 1 µM: 88%
[27]
  remaining binding at 0.1 µM: 87%
[28]
  remaining binding at 1 µM: 96%
[29]
  remaining binding at 1 µM: 79%
[30]
  remaining binding at 0.1 µM: 100%
[31]
  remaining binding at 1 µM: 96%
[32]
  remaining binding at 1 µM: 64%
[33]
  remaining binding at 0.1 µM: 100%
[34]
  remaining binding at 0.1 µM: 92%
[35]
  remaining binding at 0.1 µM: 89%
